We go through 2 molecules from US12589161B2, “PEGylated synthetic KL4 peptide, compositions and methods thereof” (THE UNIVERSITY OF HONG KONG, priority 2019, dated 2026).

Data set [1] relates to A549 cells. The data set is described as follows: GAPDH siRNA transfection on A549 cells (Western blot). The class given is cell-based, human. On the procedure:
A549 cells were seeded in 6-well plates at a density of 1.5×10^5 cells per well one day before transfection. The cells were transfected with peptide/siRNA complexes containing 50 pmol of GAPDH siRNA or negative control siRNA per well (50 nM). The complexes were prepared in OptiMEM I reduced serum medium at 10:1, 15:1 and 20:1 ratios (w/w). Lipofectamine 2000 was used as control. The complexes were added to the cells and incubated for 4 h at 5% CO2, 37° C. before being washed with PBS. The transfection medium was removed and replaced with serum supplemented cell culture medium. At 72 h post-transfection, the cells were washed and lysed with cell lysis buffer. Western blotting assay was performed to analyze the level of GAPDH protein. The GAPDH expression was analyzed by densitometry of Western Blots using Image J software. The remaining GAPDH expression was the density of the GAPDH band of positive control (normalized with beta-actin of the corresponding sample) divided by the GAPDH band of negative control (normalized with the beta actin band of the corresponding sample).
(§1) A549 cells, BEAS-2B and Calu-3 cells were seeded in six-well plates at a density of 1.6×10^5 cells per well, 2×10^5 cells per well and 3×10^5 cells per well, respectively, one to two days before transfection. The cells were transfected with peptide/siRNA complexes at 5:1 to 20:1 ratio (w/w) containing GAPDH siRNA or negative control siRNA (6 to 100 nM) in OptiMEM I reduced serum medium. Lipofectamine 2000 was used for comparison. After 5 h of incubation, the cells were washed and replaced with serum supplemented cell culture medium. At 72 h post-transfection, the cells were washed and lysed with cell lysis buffer. Western blotting assay was performed to analyze the level of GAPDH protein as previously described. The GAPDH expression was analyzed by densitometry of Western blots using ImageJ software (Version 1.52). The GAPDH expression was normalized with the expression of […]-actin of the corresponding sample. The remaining GAPDH expression was the normalized GAPDH expression of positive control divided by the normalized GAPDH expression of negative control.
In general terms: Immunoblotting shows a protein as a band on a membrane.

The subject of data set [2] is A549 cells. The data set is described as follows: Cellular uptake study of mRNA (flow cytometry and confocal microscopy). The class given is cell-based, human. The note with it: 10:1 ratio (w/w), cyanine-5 labelled mRNA, 4 h post-transfection, flow cytometry. On the procedure:
The cellular uptake of the mRNA was studied by flow cytometry and confocal microscopy. For the flow cytometry study, A549 cells were seeded in 24-well plates at a density of 0.5×10^5 cells per well one day before the experiment. The cells were transfected with naked mRNA, KL4/mRNA and PEG12KL4/mRNA complexes at 10:1 ratio (w/w) in OptiMEM I reduced serum medium containing 1 μg of cyanine-5 labelled EGFP mRNA per well. After 4 h of incubation, the cells were washed and trypsinized. Cells from three separate wells of the same treatment were combined and suspended in culture medium. The extracellular florescent signal was quenched with 0.04% (w/v) trypan blue solution. After 2 min, the cells were washed, resuspended in 300 μL of PBS and sieved with a sterile 40 μm cell strainer (BD Biosciences, CA, USA). The fluorescence intensity was analyzed by flow cytometry (BD FACSCantoII Analyzer, BD Biosciences, CA, USA). At least 1×10^4 single cells were analyzed for each sample. For the confocal study, A549 cells were seeded in a 35 mm Mattek glass bottom culture dish (Mattek Corp. Ashland, MA, USA) at a density of 1×10^5 cells per well one day before imaging. Naked mRNA, KL4/mRNA and PEG12KL4/mRNA complexes at 10:1 ratio (w/w) were prepared in Opti-MEM I reduced serum medium with 2 μg of cyanine-5 labelled mRNA per dish. […]
On the technique in general: In flow cytometry, cells or beads pass a laser one at a time.

For data set [3], the system named is A549 cells. The data set is described as follows: Cellular uptake of siRNA by flow cytometry on A549 cells. The data set is classed as cell-based, human. The conditions noted are these: A549, 10:1 ratio, fluorescently labelled siRNA, 4 h. How it is done: Flow cytometry was used to investigate the cellular uptake of peptide/siRNA complexes. A549 cells and Calu-3 cells were seeded in six-well plates at a density of 2.5×10^5 cells and 4×10^5 cells per well, respectively, one day before the experiment. The cells were transfected with peptide/siRNA complexes at 10:1 ratio (w/w) containing fluorescently labelled siRNA (150 nM) in Opti-MEM I reduced serum medium. The transfection medium was removed after 4 h of incubation, and the cells were washed with PBS once. The cells were trypsinized by 0.25% (w/v) trypsin-EDTA and suspended in culture medium. The extracellular fluorescence signal was quenched with 0.04% (w/v) trypan blue solution. After 2 min of incubation, the cells were washed with PBS thrice. The cells were resuspended in 500 μL of PBS and sieved with a sterile 40 μm cell strainer (BD Biosciences, CA, USA). The fluorescence intensity was analyzed by flow cytometry with PE/PI laser (585/42 nm) (BD FACSCantoII Analyzer, BD Biosciences, CA, USA). At least 10,000 single cells were analyzed for each sample.

Data set [4] can be described thus: Charge ratio of peptide to siRNA at 10:1 weight ratio. From the text:
This is partly because the uncharged PEG chains reduced the effective charge ratio between cationic KL4 and siRNA [77]. The charge ratios of KL4, PEG6KL4, PEG12KL4 and PEG24KL4 to siRNA at 10:1 weight ratio are 6.1 to 1, 5.5 to 1, 4.9 to 1 and 4.2 to 1, respectively. […] The molecular weight of the PEG used in this study, which is below 1,200 Da, is relatively low compared with others where PEG of 2,000 to 5,000 Da was often used. Therefore, PEGylated KL4 peptide/siRNA complexes remained to be positively charged, which is suitable for cellular entry. […] In addition, PEG also provides steric hindrance between the interaction of KL4 and siRNA that weakens the binding, promoting the release of siRNA from the complexes after the addition of heparin.

Data set [5] is described as follows: Circular dichroism, temperature ramping. The data set is classed as physicochemical. The note with it: 6 to 94 °C, 5 mM Tris-HCl buffer, 0.1 mg/mL. How it is done: KL4 and PEG6KL4 peptides were dissolved in 5 mM Tris-HCl buffer at a final concentration of 0.1 mg/mL in 0.1% (v/v) DMSO. PEG12KL4 and PEG24KL4 were dissolved in 5 mM Tris-HCl buffer at a final concentration of 0.1 mg/mL without DMSO. CD spectra were acquired on a Chirascan™ Spectrometer (Applied Photophysics, Leatherhead, UK). For temperature ramping experiment, far-UV CD spectra were obtained with the peptide solution incubated from 6° C. to 94° C. Spectra were recorded from 260 to 190 nm using a 0.5 mm path length and were processed using Chirascan software where a spectrum of the peptide free solution was subtracted and Savitzky-Gorlay smoothing applied.

Data set [6] in a line: Solubility of peptides in water. The class given is physicochemical.
The test system of another data set is BEAS-2B cells. The data set is described as follows: GAPDH siRNA transfection on BEAS-2B cells (Western blot). The class given is cell-based, human. The conditions noted are these: one-way ANOVA, Tukey, n.s. not significant, * p<0.05, ** p<0.01, *** p<0.001. How it is done: as §1
The subject of another data set is siRNA. Briefly: Fluorescence displacement assay of siRNA binding and heparin release. The note with it: 10:1 ratio, heparin titration. How it is done:
The siRNA binding affinity of the peptides was investigated by fluorescence displacement assay using negative control siRNA. The siRNA was added into 1× SYBR® Gold Tris-acetate-EDTA (TAE) buffer and incubated for 30 min at room temperature. The fluorescence intensity was quantified by fluorescence spectrophotometer (SpectraMax® M4, Molecular devices, LLC., CA, USA) at 495 nm excitation and 537 nm emission wavelengths. The peptides at concentration of 1 mg/mL were titrated to the siRNA/dye mixtures. The fluorescence intensity of siRNA/dye mixture in the presence of peptides was expressed as a percentage of that of the siRNA/dye mixture without peptides. The background fluorescence was subtracted from all measurements before analysis. Percentage change of fluorescence intensity was plotted against the weight ratio of peptides to siRNA upon titration. To further investigate the binding profile of the peptide/siRNA complexes, heparin was added to dissociate the complexes and release the siRNA. […] The heparin diluted in TAE buffer at concentration of 10 or 100 i.u./μL was titrated into the peptide/siRNA/dye mixture and the fluorescence intensity was measured as described above. Percentage change of fluorescence intensity was plotted against the amount of heparin upon titration. The data was fit to a four-parameter logistic sigmoidal curve and the EC50 and Hill slope were calculated.

In another data set the test system is Calu-3 cells. Briefly: GAPDH siRNA transfection on Calu-3 cells (Western blot). The conditions noted are these: one-way ANOVA, Tukey, n.s. not significant, * p<0.05, ** p<0.01, *** p<0.001. The data set is classed as cell-based, human. How it is done: as §1

Where two headings read alike, the source gives them in different places. Non-standard residues stand in square brackets, D forms with d. Residues, ends and D or L forms follow the SMILES beside them. PEG24 = NCCOCCOCCOCCOCCOCCOCCOCCOCCOCCOCCOCCOCCOCCOCCOCCOCCOCCOCCOCCOCCOCCOCCOCCOCCC(=O)O Bounds are passed on as bounds.

Take `CC(C)C[C@H](NC(=O)[C@H](CC(C)C)NC(=O)[C@H](CC(C)C)NC(=O)[C@H](CC(C)C)NC(=O)[C@H](CCCCN)NC(=O)[C@H](CC(C)C)NC(=O)[C@H](CC(C)C)NC(=O)[C@H](CC(C)C)NC(=O)[C@H](CC(C)C)NC(=O)[C@H](CCCCN)NC(=O)[C@H](CC(C)C)NC(=O)[C@H](CC(C)C)NC(=O)[C@H](CC(C)C)NC(=O)[C@H](CC(C)C)NC(=O)[C@H](CCCCN)NC(=O)[C@H](CC(C)C)NC(=O)[C@H](CC(C)C)NC(=O)[C@H](CC(C)C)NC(=O)[C@H](CC(C)C)NC(=O)[C@@H](N)CCCCN)C(=O)N[C@@H](CCCCN)C(N)=O` [KL4, reference compound] (H-KLLLLKLLLLKLLLLKLLLLK-NH2; N-terminus assumed): the “Comparison within the same peptide prepared at different peptide to siRNA ratios” value in the data set on A549 cells [1] (A549, one-way ANOVA, Tukey, n.s. not significant, * p<0.05, ** p<0.01, *** p<0.001) is on record as “n.s”. In addition, the “percentage of cells with mRNA uptake” value in the data set on A549 cells [2] is on record as 15%. For the same molecule, the “percentage of cells with siRNA uptake” value in the data set on A549 cells [3] is on record as “less than 20%”. For the same molecule, the “charge ratio of peptide to siRNA” value in [4] fell in the range of 6.1 to 1. Further, the “secondary structure at different temperatures (far-UV CD)” value in [5] is listed as “the alpha-helical structure gradually turned to a beta-sheet conformation”. In addition, the solubility (usually how much of the substance goes into solution per volume) in data set [6] (water) is under 1000 µg/mL.

On to `CC(C)C[C@H](NC(=O)[C@H](CC(C)C)NC(=O)[C@H](CC(C)C)NC(=O)[C@H](CC(C)C)NC(=O)[C@H](CCCCN)NC(=O)[C@H](CC(C)C)NC(=O)[C@H](CC(C)C)NC(=O)[C@H](CC(C)C)NC(=O)[C@H](CC(C)C)NC(=O)[C@H](CCCCN)NC(=O)[C@H](CC(C)C)NC(=O)[C@H](CC(C)C)NC(=O)[C@H](CC(C)C)NC(=O)[C@H](CC(C)C)NC(=O)[C@H](CCCCN)NC(=O)[C@H](CC(C)C)NC(=O)[C@H](CC(C)C)NC(=O)[C@H](CC(C)C)NC(=O)[C@H](CC(C)C)NC(=O)[C@H](CCCCN)NC(=O)CCOCCOCCOCCOCCOCCOCCOCCOCCOCCOCCOCCOCCOCCOCCOCCOCCOCCOCCOCCOCCOCCOCCOCCOCCN)C(=O)N[C@@H](CCCCN)C(N)=O` [PEG24KL4] (H-[PEG24]KLLLLKLLLLKLLLLKLLLLK-NH2; N-terminus assumed), for which, in the data set on A549 cells [1] (A549, 10:1 ratio, 6 to 100 nM siRNA, 72 h), the “siRNA transfection efficiency among the four peptides at different amounts of siRNA” value is “lowest transfection efficiency”. Moreover, the figures for the “Comparison within the same peptide prepared at different peptide to siRNA ratios” value in the data set on BEAS-2B cells and in the data set with Calu-3 cells were 5:1 vs 20:1 * and “n.s”, respectively. For the same molecule, the “charge ratio of peptide to siRNA” value in [4] was in the range of 4.2 to 1. Besides, the “binding affinity between peptide and siRNA” value in the data set with siRNA is on record as “weakest”. In addition, in data set [5], the “secondary structure at different temperatures (far-UV CD)” value is “adopted an alpha-helical structure at all tested temperatures”. The molecule further returned a solubility in data set [6] of over 2000 µg/mL.
